What was measured:
[1] = system: Alternaria dauci; test: Growth inhibition of Alternaria dauci (protocol of Example 1), non-fungicidal amount; format: cell-based
Method: Suspensions of fungal conidia (starting material being for example 10^5 conidia/mL) are cultured in liquid medium, such as, for example, 300 μL of PBD medium, on microplate wells at 25° C. with shaking at 175 rpm for 5 minutes every 10 minutes. Increasing concentrations of the tested product are added on wells, and fungal growth is measured, during at least 5 hours, preferably at least 10, 20, 30 hours. Methods for measuring fungal growth are well known from the skilled artisan. […] Growth inhibition is measured by comparing the Area Under Curves (AUC) of treated samples and of untreated controls. […]
(§1) For inoculum preparation, conidia were collected from 8-days-old solid cultures by adding PD broth followed by gentle scraping of the agar plates. They were counted in a Thoma's chamber and the conidial suspensions were diluted to the concentration of 10^5 conidia/mL.
Growth was automatically recorded for at least 30 hours at 25° C. using a nephelometric reader (NEPHELOstar Galaxy, BMG Labtech, Germany) equipped with a 635-nm laser as radiation source. […] Each well was measured for 0.1 second with a laser beam of 2.5 mm.
The non-fungicidal amount of the sanguinarine contained in M. cordata extract against A. dauci strain was determined as 12 μM or 4 ppm according to the protocol described in Example 1. […]

[2] = system: Alternaria brassicicola; test: Test A: growth of Alternaria brassicicola conidia followed by nephelometry, to find the non-fungicidal amount; format: cell-based
Method: (§2) Suspensions of fungal conidia (starting material being for example 10^5 conidia/mL) are cultured in liquid medium, such as, for example, 300 μL of PBD medium, on microplate wells at 25° C. with shaking at 175 rpm for 5 minutes every 10 minutes. Increasing concentrations of the tested product are added on wells, and fungal growth is measured, during at least 5 hours, preferably at least 10, 20, 30 hours. Methods for measuring fungal growth are well known from the skilled artisan. Examples of such methods include, but are not limited to, photometry, such as, for example, spectrophotometric methods; or nephelometry, such as, for example, laser nephelometry as described in Joubert et al (Biotechniques, 2010, 48:399-404). Growth inhibition is measured by comparing the Area Under Curves (AUC) of treated samples and of untreated controls. Test A is carried out in Example 1.
Alternaria brassicicola strains were cultivated at 24° C. on potato dextrose (PD) medium (Cat. No. 213200; Becton Dickinson, USA).
as §1
Growth was automatically recorded for at least 30 hours at 25° C. using a nephelometric reader (NEPHELOstar Galaxy, BMG Labtech, Germany) equipped with a 635-nm laser as radiation source. During incubation, the 96-well plates were subjected to shaking at 175 rpm for 5 minutes every 10 minutes. Measurements were done every hour with a gain value of 90 and a percentage of the maximum value of 20%. Each well was measured for 0.1 second with a laser beam of 2.5 mm.
Chelerythrin (25 μM or 50 μM, test wells) or 10 μL of DMSO (chelerythrin solvent, control wells) were added on wells, and growth curves were drawn (FIG. 1).
Camalexin (10, 20, 40 or 60 μM, test wells) or 10 μL of DMSO (chelerythrin solvent, control wells) were added on wells, and growth curves were drawn (FIG. 2).

[3] = system: Alternaria brassicicola; test: Test B: potentiating effect with a plant defense molecule on growth of Alternaria brassicicola; format: cell-based
Method: as §2, with “Test B: • 1) Determining a non-fungicidal amount of said agent, preferably according to Test A; • 2) Determining a non-fungicidal amount of a plant defense molecule, preferably according to Test A; • 3) Measuring growth of fungal conidia in a medium comprising a combination of a non-fungicidal amount of the agent, as determined in step 1, and a non-fungicidal amount of the plant defense molecule, as determined in step 2. In one embodiment, the growth is measured as follows: Suspensions” for “Suspensions”, “material:” for “material being for example”, “Non-fungicidal” for “Increasing”, “agent and of the tested plant defense molecule” for “product”, “measured” for “measured,”, “controls.” for “controls. Test A is carried out in Example 1.”
The potentiating effect of chelerythrin is measured in a suspension of conidia treated with a plant defense molecule, camalexin, which is present at a non-fungicidal amount as determined hereinabove. Said non-fungicidal amount is consistent with the amount of camalexin produced by an infected plant organ.
Alternaria brassicicola growth was measured as described hereinabove.
A non-fungicidal amount of chelerythrin (as determined in Example 1a) and/or a non-fungicidal amount of camalexin (as determined in Example 1b) or 10 μL of DMSO are added per well, and growth curves were drawn (FIG. 3).
In the Table 5 below are shown compounds (column 1) having a potentiating effect of a plant defense molecule (column 2) for the inhibition of a pathogenic fungus (column 3). The type of the potentiating agent in this particular situation is given in column 4 (homologous or heterologous). Triads were identified according to Test B.

[4] = system: Alternaria brassicicola; test: In vivo efficacy on cabbage leaves inoculated with Alternaria brassicicola; conditions: 25 μM chelerythrin in inoculum; intact or prewounded B. oleracea cv Bartolo leaves; 6 dpi; vs DMSO side
Method: Example 2 discloses a protocol for determining the in vivo efficacy of the composition of the invention, comprising a potentiating amount of chelerythrin (25 μM), as determined in Example 1.
5 μL drops of Alternaria brassicicola conidia suspension (10^5 to 10^3 conidia/mL) were inoculated on intact or prewounded (i.e wherein the synthesis of plant defense molecules such as Brassinin was naturally triggered by the aggression) leaves of B. oleracea cv Bartolo plants at stages 4-6 leaves per plant. Inocula were deposited on the left and right sides symmetrically from the central vein: inocula comprising 25 μM of chelerythrin were deposited on the right side, and inocula comprising DMSO were deposited on the left side. The plants were then maintained under saturing humidity (100% relative humidity).

[5] = system: BY4743 strain transformed with the empty pYES2-CT vector; test: Test C: growth of S. cerevisiae control strain (empty pYES2-CT vector); format: cell-based, Saccharomyces cerevisiae; conditions: for Area under the curve: OD 600 nm
Method: (§3) Test C is based on the essential role of Pkc1 in fungal cells: if its essential function is inhibited, the growth of the fungal cells will be affected. Therefore, in Test C, two different strains of S. cerevisiae are cultured in the presence of the tested compound: the first one is a wild-type strain, whereas the second overexpresses the fungal Pkc1 gene. If the tested compound is an inhibitor of the fungal Pkc1 protein, the growth of the wild-type strain will be inhibited, whereas the induction of the overexpression of the heterologous fungal Pkc1 gene will restore, at least partially, the growth rate. Test C is carried out in Example 3.
(§4) Growth of this strain was monitored in an inducing medium (GS uracil-free medium supplemented with galactose) in presence of increasing concentrations of chelerythrin (0, 25, 50 or 75 μM), and was compared with the growth of a control strain (BY4743 strain transformed with the empty pYES2-CT vector). Growth was measured by spectrometry (Optic density: 600 nm). Inhibition of growth was assessed by comparison of the area under the curves.

[6] = system: S. cerevisiae strain overexpressing Alternaria brassicicola Pkc1; test: Test C: growth of S. cerevisiae strain overexpressing Alternaria brassicicola Pkc1 (pYES-PKC); format: cell-based, Saccharomyces cerevisiae; conditions: pYES2-PKC; for Area under the curve: inducing medium, OD 600 nm
Method: as §3
Construction of a S. cerevisiae strain overexpressing Alternaria brassicicola Pkc1 The cDNA encoding the Pkc1 gene of Alternaria brassicicola (http://genome.jgi-psf.org/Altbr1/Altbr1.home.html; sequence ref: AB07449.1) was amplified by PCR and cloned into a pYES2-CT vector (Invitrogen, Paisley, UK). The resulting vector (pYES-PKC) was inserted in a BY4743 strain of Saccharomyces cerevisiae.
as §4

[7] = system: BY4743 strain of Saccharomyces cerevisiae; test: Test D: growth of S. cerevisiae BY4743 in normal and high osmotic pressure conditions; format: cell-based
Method: Test D is based on the fact that the protein Pkc1 is implied in the CWI pathway. In a situation where the CWI pathway is impaired, growth of fungal cells is less affected by a high osmotic pressure. Consequently, in Test D, a S. cerevisiae strain is cultured in conditions of high osmotic pressure, in the presence or in absence of the tested compound. If said compound is a Pkc1 inhibitor, it will inhibit the growth of cells in normal osmotic pressure conditions, but not, or less, in high osmotic pressure conditions. Test D is carried out in Example 3.
The growth of a BY4743 strain of Saccharomyces cerevisiae on a liquid SD medium comprising increasing concentrations of chelerythrin (0, 10, 15, 20 or 25 μM) was monitored and compared to the growth of the same strain on a liquid SD medium containing 1M of sorbitol (high osmotic pressure conditions) in presence of increasing concentrations of chelerythrin.
Growth was measured by spectrometry (optic density: 600 nm) Inhibition of growth was assessed by comparison of the area under the curves.

[8] = system: Botrytis cinerea; test: Test B: potentiating effect with a plant defense molecule on Botrytis cinerea; format: cell-based
Method: as §2, with “Test B: • 1) Determining a non-fungicidal amount of said agent, preferably according to Test A; • 2) Determining a non-fungicidal amount of a plant defense molecule, preferably according to Test A; • 3) Measuring growth of fungal conidia in a medium comprising a combination of a non-fungicidal amount of the agent, as determined in step 1, and a non-fungicidal amount of the plant defense molecule, as determined in step 2. In one embodiment, the growth is measured as follows: Suspensions” for “Suspensions”, “material:” for “material being for example”, “Non-fungicidal” for “Increasing”, “agent and of the tested plant defense molecule” for “product”, “measured” for “measured,”, “Test A is carried out in Example 1.” left out

[9] = system: Alternaria dauci; test: Test B: potentiating effect with a plant defense molecule on growth of Alternaria dauci; format: cell-based; conditions: plant defense molecule 6-methoxymellein
Method: Test B: • 1) Determining a non-fungicidal amount of said agent, preferably according to Test A; • 2) Determining a non-fungicidal amount of a plant defense molecule, preferably according to Test A; • 3) Measuring growth of fungal conidia in a medium comprising a combination of a non-fungicidal amount of the agent, as determined in step 1, and a non-fungicidal amount of the plant defense molecule, as determined in step 2. In one embodiment, the growth is measured as follows: Suspensions of fungal conidia (starting material: 10^5 conidia/mL) are cultured in liquid medium, such as, for example, 300 μL of PBD medium, on microplate wells at 25° C. with shaking at 175 rpm for 5 minutes every 10 minutes. Non-fungicidal concentrations of the tested agent and of the tested plant defense molecule are added on wells, and fungal growth is measured during at least 5 hours, preferably at least 10, 20, 30 hours. Methods for measuring fungal growth are well known from the skilled artisan. […] Growth inhibition is measured by comparing the Area Under Curves (AUC) of treated samples and of untreated controls. […]
Following the aforementioned growth inhibition protocol, the following treatments are assessed: • 6-methoxymellein 125 μM, • 6-methoxymellein 100 μM, • 6-methoxymellein 125 μM and M. cordata extract (10 μM of Sanguinarine), • 6-methoxymellein 100 μM and M. cordata extract (10 μM of Sanguinarine).

[10] = plant defense molecule Brassinin, Alternaria brassicicola

COc1cc(O)c2c(c1)C[C@@H](C)OC2=O [6-methoxymellein]
growth inhibition of Alternaria dauci ([1]; 6-methoxymellein 100 μM): did not inhibit | growth inhibition of Alternaria dauci ([1]; 6-methoxymellein 125 μM): did not inhibit

COc1ccc2c(c[n+](C)c3c4cc5c(cc4ccc23)OCO5)c1OC [Chelerythrin]
Alternaria brassicicola growth inhibition ([2]; 25 μM chelerythrin, nephelometry, at least 30 hours, 25° C., vs DMSO control): does not inhibit | non-fungicidal amount ([2]; Alternaria brassicicola, in vitro): 25 µM | inhibition of Alternaria brassicicola growth by the combination ([3]; 25 μM chelerythrin combined with 10 μM camalexin, both non-fungicidal amounts): drastic inhibition | Type of potentiating agent (compound having a potentiating effect of the plant defense molecule) [3, 10]: Homologous | Type of potentiating agent (compound having a potentiating effect of the plant defense molecule) ([3]; plant defense molecule Camalexin, Alternaria brassicicola): Homologous | potentiating amount ([3]; with non-fungicidal amount of camalexin, Alternaria brassicicola): 25 µM | fungal infection of cabbage leafs [4]: limits in vivo the fungal infection | Area under the curve ([5]; 25 μM chelerythrin): 8.6 | Area under the curve ([5]; 50 μM chelerythrin): 3.2 | Area under the curve ([5]; 75 μM chelerythrin): 2.5 | inhibition at 25 µM ([5]; Saccharomyces cerevisiae, 25 μM chelerythrin): 43% | inhibition at 50 µM ([5]; Saccharomyces cerevisiae, 50 μM chelerythrin): 79% | inhibition at 75 µM ([5]; Saccharomyces cerevisiae, 75 μM chelerythrin): 84% | inhibition at 25 µM ([6]; 25 μM chelerythrin): 15% | Area under the curve ([6]; 25 μM chelerythrin): 10.7 | inhibition at 50 µM ([6]; 50 μM chelerythrin): 25% | Area under the curve ([6]; 50 μM chelerythrin): 9.4 | inhibition at 75 µM ([6]; 75 μM chelerythrin): 30% | Area under the curve ([6]; 75 μM chelerythrin): 8.8 | Area under the curve ([7]; SD + Sorbitol (1M, high osmotic pressure), 10 μM chelerythrin): 5.2 | Area under the curve ([7]; SD + Sorbitol (1M, high osmotic pressure), 15 μM chelerythrin): 5.0 | Area under the curve ([7]; SD + Sorbitol (1M, high osmotic pressure), 20 μM chelerythrin): 2.0 | Area under the curve ([7]; SD medium, 10 μM chelerythrin): 14.3 | Area under the curve ([7]; SD medium, 15 μM chelerythrin): 11.8 | Area under the curve ([7]; SD medium, 20 μM chelerythrin): 10.4 | Area under the curve ([7]; SD medium, 25 μM chelerythrin): 8.1 | inhibition at 10 µM ([7]; Saccharomyces cerevisiae, SD + Sorbitol (1M, high osmotic pressure), 10 μM chelerythrin): -3% | inhibition at 15 µM ([7]; Saccharomyces cerevisiae, SD + Sorbitol (1M, high osmotic pressure), 15 μM chelerythrin): 1% | inhibition at 20 µM ([7]; Saccharomyces cerevisiae, SD + Sorbitol (1M, high osmotic pressure), 20 μM chelerythrin): 0% | inhibition at 10 µM ([7]; Saccharomyces cerevisiae, SD medium, 10 μM chelerythrin): 10% | inhibition at 15 µM ([7]; Saccharomyces cerevisiae, SD medium, 15 μM chelerythrin): 26% | inhibition at 20 µM ([7]; Saccharomyces cerevisiae, SD medium, 20 μM chelerythrin): 35% | inhibition at 25 µM ([7]; Saccharomyces cerevisiae, SD medium, 25 μM chelerythrin): 49%

CCOc1cc2c3cc(OC)c(OC)cc3cnc2c2cc(OC)c(OC)cc12 [Compound 1]
Type of potentiating agent (compound having a potentiating effect of the plant defense molecule) ([3]; plant defense molecule Resveratrol, Alternaria brassicicola): Heterologous

CCOc1cc2c3cc(OC)c(OC)cc3c[n+](C)c2c2cc(OC)c(OC)cc12 [Compound 2]
Type of potentiating agent (compound having a potentiating effect of the plant defense molecule) [3, 10]: Homologous | Type of potentiating agent (compound having a potentiating effect of the plant defense molecule) ([8]; plant defense molecule Brassinin): Homologous | Type of potentiating agent (compound having a potentiating effect of the plant defense molecule) ([8]; plant defense molecule Camalexin): Homologous | Type of potentiating agent (compound having a potentiating effect of the plant defense molecule) [9]: Homologous

— patent publication US11566260B2, “Potentiating agents for protecting plants from fungal infections” (UNIVERSITE D'ANGERS, priority 2012, dated 2023)
